Source: patent publication US20250059499A1, “CELL-SURFACE ENGINEERING COMPOSITIONS AND METHODS FOR THE PREVENTION OF IMMUNE REJECTION” (THE UNIVERSITY OF BRITISH COLUMBIA, priority 2021, published 2025)
Entries after “also recorded” stand apart in the source; their conditions may differ. LPG = linear polyglycerol, Mn 14,900 Da

Legend:
Ea.hy926 cells [1] = assay: Polymer attachment to endothelial cell surface by flow cytometry (BODIPY FL-labelled polymer); type: cell-based
Protocol: Ea.hy 926 cells at […] confluence were trypsinized and plated in a 96 well plate at 15,000 cells/well. Cells reached 100% confluence at day 3 and allowed to grow for a further 4 days at 37° C. and 5% CO2. Cells were washed twice with cold DPBS and incubated with UW solution freshly supplemented with 3 mM GSH, 5 mM CaCl2, 0.2 […] and 0.5 mM LPG-Q or 0.56 mM glycopolymers ([…]) unless otherwise noted. The solutions were mixed thoroughly and incubated at 4° C. for 30 minutes under static conditions. The cell supernatant was collected and the cells were washed three times with PBS and subjected to further analysis. The assessment of polymer attachment to endothelial cells are assessed by ammonia assay, flow cytometry and polymer mediated cell-surface camouflage of surface proteins. […] To quantify the extent of cell surface engineering, polymers were attached to endothelial surfaces according to the general cell surface engineering procedures outlined in previously using polymer in which 10% were labelled with BODIPY FLTM (ratio of non-labeled polymer: BODIPY labeled polymer=9:1). The cell monolayers were trypsinized and subjected to flow cytometry (CytoFLEXTM, Beckman CoulterTM) in which 10,000 events were acquired and the median fluorescent intensity (MFI) in the 488 channel was recorded.

cell-surface ICAM-1 = assay: ICAM-1 labelling by flow cytometry (immunocamouflage); type: cell-based, human; details: TNF-α activated Ea.hy926, 0.2-3.0 mM polymer, UW, 4° C.
Protocol: For ICAM-1 labelling, Ea.hy926 cells were activated with TNF-α (2000 U/mL, 3 hours)^9 in serum deficient DMEM to stimulate the expression of ICAM-1 on the cell surface before polymer attachment. To account for differences in reactivity between Q-tagged polymers, concentrations of polymer added to the solution were adjusted using NH3 generation data to ensure that a similar number of polymers attached to the cell surface. Following polymer attachment, the cells were fixed, and labelled with PE-Cy™5 Mouse Anti-Human CD54 (1:20, BD Biosciences™) for 20 minutes at room temp in the dark. The cell monolayers were trypsinized and subjected to flow cytometry (CytoFLEX™, Beckman Coulter™) in which 10,000 events were acquired and the median fluorescent intensity in the 667 channel was recorded

Ea.hy926 cells [2] = assay: Enzyme-mediated glycocalyx removal from endothelial surface (loss of attached polymer); type: cell-based; details: 0.1 mM H2O2 and 1 nM epinephrine, 1 hour at 37° C.
Protocol: Ea.hy926 endothelial cells were treated with 0.5 mM LPG-SS or LPG-Q (containing 10% BODIPY FL) for 30 min at 4° C. in UW solution fortified with 3 mM GSH, 5 mM CaCl2, 0.2 U/mL gtTGase. […] Cells were washed, trypsinized and immediately subjected to flow cytometry. Controls with no enzyme treatment were used to set gates for 100% labeled cell populations.

[3] = tested on: TNF-α activated Ea.hy926 cells co-cultured with IL-2 activated PBMCs
Protocol: (§1) EA.hy 926 monolayers were activated using TNF-α and PBMCs were activated using IL-2 as described in PBMC adhesion experiments. Following activation, PBMC was collected and resuspended in DMEM (Phenol free, 5% FBS, pen/strep). PBMCs were then added to activated EA.hy 926 monolayers (modified and unmodified) to a final concentration of 0.15×10^6 cells/mL and left to incubate at 37° C. and 5% CO2 for 18 hour. After treatment, the supernatant was collected and cell debris was removed through centrifugation. LDH content was measured using LDC cytotoxicity assay (Biovision Inc.™). Cytotoxicity was calculated using the equation below;
(§2) where, LDHsample is the amount of LDH released from the sample, LDHPBMC is the amount of LDH released from PBMC samples not subjected to EA.hy 926 monolayers, LDHalive is the amount of LDH released from EA.hy 926 monolayers not subjected to PBMCs, and LDHdead is the amount of LDH released of EA.hy926 monolayers treated with RIPA buffer for 10 minutes at room temperature.

[4] = tested on: Ea.hy926 cells co-cultured with HLA-A2-reactive CAR T cells; type: cell-based; details: effector:target 2:1, 1:2 and 1:10, 18 hours
Protocol: The experiment was performed similar to previously described PBMC/Ea.hy926 co-culture experiments by replacing the effector with CAR-T cells. Ea.hy926 cells were engineered with polymers in UW solution as outlined. Cryopreserved CAR T cells were thawed using standard protocol41 and were pelleted and resuspended in phenol-free DMEM (5% FBS, pen/strep) at an effector (CAR-T cell) to target (Ea.hy926) ratios of 2:1, 1:2 and 1:10 (Vf=100 μL). After 18 hours, supernatants were removed from the wells and PBMCs were removed through centrifugation (300 g×5 minutes) and measured for LDH content to probe cell lysis using an LDH cytotoxicity assay (Biovision Inc.™). CAR-T cell-mediated cytotoxicity was calculated according to Eq. 2 replacing PBMC LDH release with CAR-T cell LDH release. LDH released by Ea.hy926 following 18 hour culture period that have not undergone polymer attachment and cultured in the absence of CAR-T cell is the 100% alive control and LDH released by Ea.hy926 following treatment with RIPA buffer for 10 minutes at ambient temperature is 100% dead control.

[5] = tested on: TNF-α activated Ea.hy926 cells co-cultured with IL-2 activated PBMCs; assay: PBMC-mediated cytotoxicity (LDH assay)
Protocol: as §1, §2

[6] = tested on: IL-2 activated PBMCs on TNF-α activated Ea.hy926 monolayers; assay: PBMC adhesion to endothelial surfaces; type: cell-based, human; details: 0.5 mM LPG-Q or 0.56 mM LPG-Q-Sia3Lac
Protocol: Confluent Ea.hy926 monolayers seeded in a 48 well plate (30,000 cells/well) were activated with TNF-α (2000 U/mL, 3 hours). To obtain PBMCs, EDTA anticoagulated blood from healthy donors was subjected to ficoll density gradient centrifugation Histopaque™-1077 (Sigma Aldrich™). PBMCs were cultured for 24 h in RPMI-1640 containing 10% FBS (v/v), 1000 U/mL recombinant human IL-2 (Cedarlane™)^11 and 1% P/S. Prior to fluorescent labelling, cultured PBMCs were tested for absence of platelets by labelling an aliquot of cells with FITC-labelled anti-human […] (1:200 Beckman Coulter™) and analyzed by flow cytometry (CytoFLEX™, Beckman Coulter™). PBMCs containing <1% platelets were implemented for further study. The PBMC composition was also measured using a hematological analyzer (XN-550™ automated hematology analyzer, Sysmex Canada Inc.™). Following IL-2 treatment the typical composition of the PBMCs were ˜80% lymphocytes, 5% immature granulocytes, 2% basophils and 13% monocytes. […] PMBC adhesion was quantified by lysing the cells with RIPA buffer, spinning at 15,000 g to remove cell debris and measuring the fluorescent intensity of the CMFDA Dye in the lysate (λex/λem=492/517 nm using a plate reader (Spectramax3™, Molecular Devices™).

linear polyglycerol glutamine (Ac-GQQQLGGGGG-{LPG}; not fully specified; also: part of the polymer BODIPY FL-labelled in some experiments) [LPG-Q]
LPG-Q attachment versus concentration (Ea.hy926 cells [1]; 0.2 mM-3.0 mM, 4° C., 30 minutes, UW solution with gtTGase): dose-dependent increase
levels of cell-surface labelling, enzyme-mediated approach compared to succinimidyl succinate amine coupling (Ea.hy926 cells [1]; 30 min at 4° C. in UW solution with gtTGase, versus LPG-SS): ~4.4 fold
detection of ICAM-1 on the surface of endothelial cells (cell-surface ICAM-1): camouflages pro-inflammatory ICAM-1 receptors in a dose-dependent manner; also recorded: reduced the detection of ICAM-1
polymer retained / glycocalyx specificity after enzyme-mediated glycocalyx removal (Ea.hy926 cells [2]): higher specificity for glycocalyx modification
decrease of PBMC-mediated cytotoxicity compared to unmodified cells [3]: under 2 fold
dependence of PBMC-mediated cytotoxicity suppression on polymer concentration or sialylation [3]: no continued significant increase in immunosuppression was observed beyond 0.27 mM
CAR-T cell induced endothelial cell cytotoxicity [4]: reduced endothelial cytotoxicity
immunosuppression on the cell surface compared with polymer in solution [5]: more potent immunosuppression than LPG-Q-Sia3Lac in solution
PBMC-mediated endothelial cell death, in words ([5]; polymer ligated to cell surface): suppress PBMC-mediated endothelial cell death
reduction of PBMC adhesion to endothelial cells compared to the control [6]: ~2.8 fold
